Several values for one entry are separate records, joined by “and”; a condition that tells them apart may be missing. Equal entries are not always repeated. Where two headings read alike, the source gives them in different places.
Key:
Experiment in all cases: 10-day Cell Titre Glo combination screen
Format in all cases: cell-based
A549 = details: Homo sapiens; A549 lung; monotherapy; read-out: mono AC50
Text: (§1) The Highest Single Agent (HSA) model is used to determine a combination's synergy score (and is based simply on the intuition that if a combination's effect exceeds the effect level of each of its constituents, there must be some combination interaction). Mathematically, the HSA model describes simple superposition of the single agent curves:
(§2) where CX,Y are the concentrations of the X and Y compound, and IX and IY are inhibitions of the single agents at CX,Y. It is also useful to calculate a volume score (HSA Volume) between the data and the HSA surface to characterise the overall strength of combination effects. Empirically derived combination matrices are compared to their respective HSA additivity models constructed from experimentally collected single agent dose response curves. Summation of this excess additivity across the dose response matrix is referred to HSA Volume.
(§3) Potency shifting can also be scored using combination index (CI). For a chosen iso-effect level (ICut), CI is calculated as: […]
(§4) where (CX/ECX) for a particular data point is the ratio of the X compound's measured concentration to its effective concentration at the chosen effect level. The CI is a rough estimate of how much drug was needed in combination relative to the single agent doses required to achieve the chosen effect level. CI values in the range of 0.5-0.7 are typical for in vitro measurements of current clinical combinations. The CI error (σCI) is calculated using standard error propagation through the CI calculation based on the isobologram errors.
(§5) This combination screen was a 10-day assay using Cell Titre Glo as the readout for viability.
(§6) The assay was performed in 384 well plates, with 1 cell line and 4 drug-drug combinations per plate dosed in a 6×6 matrix. A day zero reading was measured to determine growth inhibition. GenedataScreener was used to input the raw values for every well, and the software was programmed to normalise the values to the day zero and DMSO control values.
(§7) The CellTiter-Glo® Luminescent Cell Viability Assay is a homogeneous method to determine the number of viable cells in culture based on quantitation of the ATP present, which signals the presence of metabolically active cells. It relies on the properties of a proprietary thermostable luciferase (Ultra-Glo™ Recombinant Luciferase), which generates a stable “glow-type” luminescent signal and improves performance across a wide range of assay conditions.
(§8) The following information was reported: Synergy scores (HSA); combination index values; AC50 (half-maximal activity concentration) monotherapy values.

CAL-120 = details: Homo sapiens; CAL-120 breast; monotherapy; read-out: mono AC50
Text: as §1, §2, §3, §4, §5, §6, §7, §8

CAL-51 = details: Homo sapiens; CAL-51 breast; monotherapy; read-out: mono AC50
Text: as §1, §2, §3, §4, §5, §6, §7, §8

Calu-1 = details: monotherapy, read-out: mono AC50
Text: as §1, §2, §3, §4, §5, §6, §7, §8

HCC1143 = details: Homo sapiens; HCC1143 breast; monotherapy; read-out: mono AC50
Text: as §1, §2, §3, §4, §5, §6, §7, §8

HCC15 = HCC15 lung; monotherapy; read-out: mono AC50
Text: as §1, §2, §3, §4, §5, §6, §7, §8

HCC1937 = details: Homo sapiens; HCC1937 breast; monotherapy; read-out: mono AC50
Text: as §1, §2, §3, §4, §5, §6, §7, §8

HCC1954 = details: Homo sapiens; HCC1954 breast; monotherapy; read-out: mono AC50
Text: as §1, §2, §3, §4, §5, §6, §7, §8

HOP62 = details: Homo sapiens, HOP-62; HOP62 lung; monotherapy; read-out: mono AC50
Text: as §1, §2, §3, §4, §5, §6, §7, §8

JIMT-1 = details: Homo sapiens; JIMT-1 breast; monotherapy; read-out: mono AC50
Text: as §1, §2, §3, §4, §5, §6, §7, §8

MCF7 T52 = details: Homo sapiens; MCF7 T52 breast; monotherapy; read-out: mono AC50
Text: as §1, §2, §3, §4, §5, §6, §7, §8

MCF7 = details: Homo sapiens; MCF7 breast; monotherapy; read-out: mono AC50
Text: as §1, §2, §3, §4, §5, §6, §7, §8

MDA-MB-468 = details: Homo sapiens; MDA-MB-468 breast; monotherapy; read-out: mono AC50
Text: as §1, §2, §3, §4, §5, §6, §7, §8

NCI-H1395 = details: monotherapy, read-out: mono AC50
Text: as §1, §2, §3, §4, §5, §6, §7, §8

NCI-H1666 = details: Homo sapiens; NCI-H1666 lung; monotherapy; read-out: mono AC50
Text: as §1, §2, §3, §4, §5, §6, §7, §8

NCI-H1792 = details: Homo sapiens; NCI-H1792 lung; monotherapy; read-out: mono AC50
Text: as §1, §2, §3, §4, §5, §6, §7, §8

NCI-H1993 = details: Homo sapiens; NCI-H1993 lung; monotherapy; read-out: mono AC50
Text: as §1, §2, §3, §4, §5, §6, §7, §8

NCI-H2085 = NCI-H2085 lung; monotherapy; read-out: mono AC50
Text: as §1, §2, §3, §4, §5, §6, §7, §8

NCI-H838 = details: Homo sapiens; NCI-H838 lung; monotherapy; read-out: mono AC50
Text: as §1, §2, §3, §4, §5, §6, §7, §8

PC-9 = details: Homo sapiens; PC-9 lung; monotherapy; read-out: mono AC50
Text: as §1, §2, §3, §4, §5, §6, §7, §8

SK-BR-3 = details: Homo sapiens; SK-BR-3 breast; monotherapy; read-out: mono AC50
Text: as §1, §2, §3, §4, §5, §6, §7, §8

SUM52PE = SUM52PE breast; monotherapy; read-out: mono AC50
Text: as §1, §2, §3, §4, §5, §6, §7, §8

SW1573 = details: Homo sapiens; SW1573 lung; monotherapy; read-out: mono AC50
Text: as §1, §2, §3, §4, §5, §6, §7, §8

T47D = details: Homo sapiens; T47D breast; monotherapy; read-out: mono AC50
Text: as §1, §2, §3, §4, §5, §6, §7, §8

ZR-75-1 = details: Homo sapiens; ZR-75-1 breast; monotherapy; read-out: mono AC50
Text: as §1, §2, §3, §4, §5, §6, §7, §8

`C[C@@H]1COCCN1c1cc(C2([S@](C)(=N)=O)CC2)nc(-c2ccnc3[nH]ccc23)n1` [AZD6738, 4-{4-[(3R)-3-Methylmorpholin-4-yl]-6-[1-((R)—S-methylsulfonimidoyl)cyclopropyl]pyrimidin-2-yl}-1H-pyrrolo[2,3-b]-pyridine] showed an AC50 (A549) of 3110 nM, an AC50 (CAL-120) of 1180 nM and an AC50 (CAL-51) of 1360 nM. It also gave an AC50 (Calu-1; Calu-1 lung) of 5600 nM, an AC50 (Calu-1; Homo sapiens, Calu-1, Calu-1 lung) of 3220 nM and an AC50 (HCC1143) of 460 nM. For the same compound, the AC50 (HCC15) was 7020 nM, the AC50 (HCC1937) was 570 nM and the AC50 (HCC1954) was 2560 nM. The AC50 (HOP62) was 590 nM, the AC50 (JIMT-1) was 869 nM and the AC50 (MCF7 T52) was 1390 nM. The AC50 (MCF7) was 1120 nM, the AC50 (MDA-MB-468) was 2310 nM and the AC50 (NCI-H1395; Homo sapiens, NCI-H1395, NCI-H1395 lung) was 3310 nM. The AC50 (NCI-H1395; NCI-H1395 lung) was 2900 nM, the AC50 (NCI-H1666) was 767 nM and the AC50 (NCI-H1792) was 677 nM. The AC50 (NCI-H1993) was 2970 nM, the AC50 (NCI-H2085) was 4750 nM and 5490 nM and the AC50 (NCI-H838) was 274 nM. The AC50 (PC-9) was 510 nM, the AC50 (SK-BR-3) was 542 nM and the AC50 (SUM52PE) was 6510 nM. The AC50 (SW1573) was 3650 nM, the AC50 (T47D) was 6850 nM and the AC50 (ZR-75-1) was 6030 nM.

Source: patent publication US20250352539A1, “COMBINATION THERAPY FOR TREATING CANCER” (AstraZeneca AB, priority 2022, published 2025)
